The NIST ThermoML archive (doi:10.1021/je8002699)

Key:
[1] = xn = mol fraction of the nth substance listed; details: for mass density / speed of sound / viscosity: 101 kPa, Liquid
[2] = refractive index (Na D-line) (dimensionless); xn = mol fraction of the nth substance listed; details: 101 kPa, Liquid

CC(=O)CC(C)(C)O [4-hydroxy-4-methylpentan-2-one] + O=[N+]([O-])c1ccccc1
Details | mass density, [1] [kg/m3] | refractive index, [2] | speed of sound, [1] [m/s] | surface tension liquid-gas, [1] [mN/m] | viscosity, [1] [mPa·s]
303.15 K, x1 = 0.1248 | 1163.9 | 1.5377 | 1395 | 39.8 | 2.022
303.15 K, x1 = 0.2389 | 1130.2 | 1.5245 | 1378 | 38.7 | 2.161
303.15 K, x1 = 0.3446 | 1102.1 | 1.5113 | 1363 | 37.5 | 2.282
303.15 K, x1 = 0.4921 | 1062 | 1.4931 | 1341 | 35.9 | 2.45
303.15 K, x1 = 0.5853 | 1038 | 1.4822 | 1327 | 34.7 | 2.562
303.15 K, x1 = 0.6427 | 1023 | 1.474 | 1317 | 34 | 2.624
303.15 K, x1 = 0.7532 | 995.6 | 1.4601 | 1298 | 32.7 | 2.735
303.15 K, x1 = 0.8226 | 979.1 | 1.45 | 1287 | 31.7 | 2.791
303.15 K, x1 = 0.9349 | – | 1.43 | 1263 | 29.5 | 2.889
303.15 K, x1 = 1 | 936 | 1.4239 | 1256 | 29.44 | 2.89
313.15 K, x1 = 0.1248 | 1157.7 | 1.5351 | 1304 | 37.45 | 1.752
313.15 K, x1 = 0.2389 | 1120.9 | 1.521 | 1290 | 36.6 | 1.931
313.15 K, x1 = 0.3446 | 1088.8 | 1.508 | 1277 | 35.6 | 2.137
313.15 K, x1 = 0.4921 | 1046.3 | 1.4897 | 1258 | 34.3 | 2.412
313.15 K, x1 = 0.5853 | 1019.9 | 1.4782 | 1244 | 33.4 | 2.541
313.15 K, x1 = 0.6427 | 1004.4 | 1.4706 | 1236 | 32.8 | 2.661
313.15 K, x1 = 0.7532 | 975.5 | 1.4548 | 1221 | 31.7 | 2.741
313.15 K, x1 = 0.8226 | 957.8 | 1.4456 | 1211 | 31 | 2.764
313.15 K, x1 = 0.9349 | – | 1.4261 | 1190 | 29.4 | 2.79
313.15 K, x1 = 1 | 912 | 1.4198 | 1183 | 28.92 | 2.791
323.15 K, x1 = 0.1248 | 1146.5 | 1.5304 | 1212 | 35.8 | 1.658
323.15 K, x1 = 0.2389 | 1109.6 | 1.5268 | 1201 | 35 | 1.843
323.15 K, x1 = 0.3446 | 1077.5 | 1.5048 | 1192 | 34.3 | 2.018
323.15 K, x1 = 0.4921 | 1035 | 1.486 | 1178 | 33.11 | 2.32
323.15 K, x1 = 0.5853 | 999.9 | 1.475 | 1169 | 32.3 | 2.492
323.15 K, x1 = 0.6427 | 993.1 | 1.4675 | 1163 | 31.8 | 2.579
323.15 K, x1 = 0.7532 | 964.3 | 1.4503 | 1152 | – | 2.651
323.15 K, x1 = 0.8226 | 946.6 | 1.4412 | 1144 | 30.1 | 2.661
323.15 K, x1 = 0.9349 | 910 | 1.4215 | 1128 | 28.8 | 2.67
323.15 K, x1 = 1 | 901 | 1.4151 | 1121 | 28.12 | 2.67

CC(=O)CC(C)(C)O [4-hydroxy-4-methylpentan-2-one] + CCc1ccccc1
Details | mass density, [1] [kg/m3] | refractive index, [2] | speed of sound, [1] [m/s] | surface tension liquid-gas, [1] [mN/m] | viscosity, [1] [mPa·s]
303.15 K, x1 = 0.1814 | 880.9 | 1.4864 | 1322 | 29.92 | 1.02
303.15 K, x1 = 0.2621 | 886.6 | 1.4813 | 1316 | 29.88 | 1.191
303.15 K, x1 = 0.3445 | 892.5 | 1.4753 | 1311 | 29.84 | 1.35
303.15 K, x1 = 0.4219 | 898 | 1.4701 | 1305 | 29.8 | 1.511
303.15 K, x1 = 0.5447 | 906.5 | 1.4599 | 1296 | 29.76 | 1.752
303.15 K, x1 = 0.6624 | 914.7 | 1.4505 | 1286 | 29.71 | 2.001
303.15 K, x1 = 0.7667 | 922 | 1.4425 | 1277 | 29.62 | 2.266
303.15 K, x1 = 0.8388 | 926.5 | 1.4373 | 1271 | 29.58 | 2.433
303.15 K, x1 = 0.9219 | 931.5 | 1.43 | 1264 | 29.5 | 2.66
303.15 K, x1 = 1 | 936 | 1.4239 | 1256 | 29.44 | 2.89
313.15 K, x1 = 0.1814 | 856 | 1.479 | 1271 | 29.04 | 0.9211
313.15 K, x1 = 0.2621 | 861.8 | 1.4741 | 1265 | 29.04 | 1.066
313.15 K, x1 = 0.3445 | 867.8 | 1.469 | 1257 | 29.03 | 1.234
313.15 K, x1 = 0.4219 | 873.3 | 1.4637 | 1250 | 29.03 | 1.4
313.15 K, x1 = 0.5447 | 882.2 | 1.454 | 1237 | 29.03 | 1.501
313.15 K, x1 = 0.6624 | 890.8 | 1.4458 | 1224 | 29.03 | 1.688
313.15 K, x1 = 0.7667 | 897.5 | 1.4384 | 1212 | 29.03 | 1.911
313.15 K, x1 = 0.8388 | 902.2 | 1.4335 | 1204 | 29 | 2.377
313.15 K, x1 = 0.9219 | 907.6 | 1.4264 | 1194 | 28.95 | 2.511
313.15 K, x1 = 1 | 912.1 | 1.4198 | 1183 | 28.92 | 2.791
323.15 K, x1 = 0.1814 | 845.9 | 1.4721 | 1192 | 27.97 | 0.7842
323.15 K, x1 = 0.2621 | 851.6 | 1.4675 | 1186 | 27.9 | 0.8814
323.15 K, x1 = 0.3445 | 857.5 | 1.4624 | 1180 | 27.82 | 0.9901
323.15 K, x1 = 0.4219 | 863 | 1.4518 | 1175 | 27.75 | 1.011
323.15 K, x1 = 0.5447 | 871.5 | 1.451 | 1165 | 27.64 | 1.201
323.15 K, x1 = 0.6624 | 879.9 | 1.4433 | 1156 | 27.53 | 1.354
323.15 K, x1 = 0.7667 | 886.6 | 1.4363 | 1146 | 27.44 | 1.521
323.15 K, x1 = 0.8388 | 891.3 | 1.4285 | 1138 | 27.35 | 1.812
323.15 K, x1 = 0.9219 | 896.9 | 1.4225 | 1130 | 27.24 | 2.082
323.15 K, x1 = 1 | 901 | 1.4151 | 1121 | 27.12 | 2.67
